What was measured:
Assay in all cases: relative viability (nuclei count vs DMSO), 5 days (fraction); higher = more cells survive
Carfilzomib + Linsitinib = compound: CC(C)C[C@H](NC(=O)[C@H](CCc1ccccc1)NC(=O)CN1CCOCC1)C(=O)N[C@@H](Cc1ccccc1)C(=O)N[C@@H](CC(C)C)C(=O)[C@@]1(C)CO1 [Carfilzomib] + C[C@]1(O)C[C@@H](c2nc(-c3ccc4ccc(-c5ccccc5)nc4c3)c3c(N)nccn32)C1 [Linsitinib] (partner 1 µM)
How it was run: (§1)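 For relative viability, nuclei counts in treated wells were divided by those in vehicle wells. Lung cancer cell lines had been pin-tool dosed in 1536-well plates the day after seeding and cultured for 5 days, then fixed and stained in one step (final 0.05% Triton X-100, 1% formaldehyde, 1 ug/ml Hoechst) and imaged at 4×. Doses were one drug alone or a fixed anchor-drug dose plus five library-drug doses (not always all listed) in √10 steps, and values are duplicate-plate medians.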

Carfilzomib + Decitabine = compound: CC(C)C[C@H](NC(=O)[C@H](CCc1ccccc1)NC(=O)CN1CCOCC1)C(=O)N[C@@H](Cc1ccccc1)C(=O)N[C@@H](CC(C)C)C(=O)[C@@]1(C)CO1 [Carfilzomib] + Nc1ncn([C@H]2C[C@H](O)[C@@H](CO)O2)c(=O)n1 [Decitabine] (partner 2 µM)
How it was run: as §1

Olaparib + Navitoclax = compound: O=C(c1cc(Cc2n[nH]c(=O)c3ccccc23)ccc1F)N1CCN(C(=O)C2CC2)CC1 [Olaparib] + CC1(C)CCC(c2ccc(Cl)cc2)=C(CN2CCN(c3ccc(C(=O)NS(=O)(=O)c4ccc(N[C@H](CCN5CCOCC5)CSc5ccccc5)c(S(=O)(=O)C(F)(F)F)c4)cc3)CC2)C1 [Navitoclax] (partner 0.5 µM)
How it was run: as §1

Olaparib + Vorinostat = compound: O=C(c1cc(Cc2n[nH]c(=O)c3ccccc23)ccc1F)N1CCN(C(=O)C2CC2)CC1 [Olaparib] + O=C(CCCCCCC(=O)Nc1ccccc1)NO [Vorinostat] (partner 1 µM)
How it was run: as §1

| Cell Line | relative viability (Carfilzomib + Linsitinib; first compound 0.001 µM) | relative viability (Carfilzomib + Linsitinib; first compound 0.003162 µM) | relative viability (Carfilzomib + Linsitinib; first compound 0.01 µM) | relative viability (Carfilzomib + Linsitinib; first compound 0.03162 µM) | relative viability (Carfilzomib + Linsitinib; first compound 0.1 µM) | relative viability (Carfilzomib + Decitabine; first compound 0.001 µM) | relative viability (Carfilzomib + Decitabine; first compound 0.003162 µM) | relative viability (Carfilzomib + Decitabine; first compound 0.01 µM) | relative viability (Carfilzomib + Decitabine; first compound 0.03162 µM) | relative viability (Carfilzomib + Decitabine; first compound 0.1 µM) | relative viability (Olaparib + Navitoclax; first compound 0.08 µM) | relative viability (Olaparib + Navitoclax; first compound 0.253 µM) | relative viability (Olaparib + Navitoclax; first compound 2.53 µM) | relative viability (Olaparib + Navitoclax; first compound 8 µM) | relative viability (Olaparib + Vorinostat; first compound 0.08 µM) | relative viability (Olaparib + Vorinostat; first compound 0.253 µM) | relative viability (Olaparib + Vorinostat; first compound 2.53 µM) | relative viability (Olaparib + Vorinostat; first compound 8 µM) |
| --- | --- | --- | --- | --- | --- | --- | --- | --- | --- | --- | --- | --- | --- | --- | --- | --- | --- | --- |
| LXF-289 | 1 | 1.03 | 0.982 | 0.097 | 0.083 | 0.368 | 0.399 | 0.375 | 0.162 | 0.0931 | 1.03 | 0.9 | 1.02 | 0.96 | 0.81 | 0.731 | 0.807 | 0.722 |
| NCI-H23 | 0.537 | 0.708 | 0.567 | 0.206 | 0.12 | 0.33 | 0.336 | 0.307 | 0.24 | 0.164 | 0.953 | 0.684 | 0.603 | 0.387 | 0.957 | 0.542 | 0.434 | 0.256 |
| NCI-H322M | 0.806 | 0.929 | 0.913 | 0.99 | 0.489 | 0.621 | 0.756 | 0.615 | 0.718 | 0.505 | 1.34 | 1.07 | 1.23 | 1.01 | 1.01 | 0.854 | 0.942 | 0.831 |
| NCI-H441 | 0.569 | 0.451 | 0.233 | 0.104 | 0.115 | 0.23 | 0.258 | 0.211 | 0.122 | 0.14 | – | 0.406 | 0.706 | 0.582 | 0.808 | 0.696 | 0.673 | 0.607 |
| NCI-H460 | 0.759 | 0.891 | 0.719 | 0.0155 | 0.0133 | 0.453 | 0.514 | 0.394 | 0.414 | 0.0292 | 1.18 | 0.94 | 0.815 | 0.424 | 0.778 | 0.58 | 0.378 | 0.0953 |
| NCI-H520 | 1.01 | 1.09 | 0.667 | 0.152 | 0.151 | 0.494 | 0.5 | 0.398 | 0.16 | 0.173 | 1.32 | 0.932 | 1.08 | 0.601 | 0.822 | 0.684 | 0.554 | 0.341 |
| NCI-H596 | 1.11 | 1.03 | 1.16 | 0.628 | 0.449 | 0.904 | 0.999 | 1.03 | 1.16 | 0.308 | 0.899 | 0.902 | 0.878 | 0.519 | 0.696 | 0.529 | 0.551 | 0.397 |
| NCI-H647 | 0.942 | 1.16 | 0.761 | 0.0416 | 0.0315 | 0.365 | 0.321 | 0.274 | 0.049 | 0.0498 | 1.44 | 1.1 | 1.06 | 0.745 | 0.585 | 0.504 | 0.6 | 0.271 |
| NCI-H727 | 0.406 | 0.249 | 0.301 | 0.431 | 0.117 | 0.897 | 0.937 | 0.836 | 0.9 | 0.746 | 0.42 | 0.344 | 0.321 | 0.204 | 1.19 | 1.08 | 0.983 | 0.981 |
| NCI-H838 | 1.02 | 1.02 | 1.05 | 0.676 | 0.116 | 0.437 | 0.498 | 0.434 | 0.27 | 0.178 | 1.12 | 1.06 | 1.03 | 1.03 | 0.747 | 0.646 | 0.709 | 0.65 |
| NCI-H1355 | 0.795 | 0.915 | 0.794 | 0.487 | 0.14 | 0.379 | 0.402 | 0.353 | 0.377 | 0.157 | 0.959 | 0.887 | 0.949 | 0.881 | 0.683 | 0.645 | 0.638 | 0.641 |
| NCI-H1395 | 1.28 | 1.16 | 0.795 | 1.4 | 0.307 | – | 0.756 | 0.602 | 0.441 | 0.319 | 1.27 | 0.937 | 0.776 | 0.573 | 0.775 | 0.501 | 0.516 | 0.419 |
| NCI-H1437 | 0.965 | 1.08 | 0.984 | 0.388 | 0.117 | 0.58 | 0.599 | 0.567 | 0.413 | 0.316 | 1.12 | 1.01 | 0.952 | 0.761 | 0.945 | 0.746 | 0.695 | 0.639 |
| NCI-H1651 | 0.982 | 0.965 | 0.487 | 0.0962 | 0.0748 | 0.467 | 0.677 | 0.32 | 0.163 | 0.0885 | 0.97 | 0.814 | 0.654 | 0.257 | 0.493 | 0.515 | 0.493 | 0.365 |
| NCI-H1666 | 0.844 | 0.796 | 0.79 | 0.545 | 0.24 | 0.707 | 0.782 | 0.751 | 0.704 | 0.403 | 1.17 | 0.828 | 0.796 | 0.853 | 1.06 | 0.957 | 0.981 | 0.836 |
| NCI-H1734 | 0.871 | 0.986 | 0.855 | 0.715 | 0.205 | 0.482 | 0.517 | 0.48 | 0.474 | 0.136 | 0.854 | 0.709 | 0.765 | 0.531 | 0.868 | 0.74 | 0.715 | 0.572 |

Source: the supplement of paper PMC10307832
